From PubChem BioAssay (NCI)
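All cell lines were grown in 96-well plates and treated with compound for 48 hours. Abbreviation: GI50, concentration required for 50% inhibition of growth. TGI is the concentration that stops growth completely.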

The compounds below were run on MDA-MB-468 breast (assay: NCI-60 cell line screen, 48 h).

Compared with `Nc1cc2nc3ccccc3sc-2cc1=O`, `Oc1ccc(Cl)cc1-c1cc(-c2ccccc2Cl)[nH]n1` is 1.9-fold lower in GI50: 3740 nM for the first, 1960 nM for the second.

First: COc1cc(/C=C/c2cc(/C=C/c3ccc(O)c(OC)c3)n(C(=O)Nc3ccc(F)cc3)n2)ccc1O
Second: Cn1ccnc1C(=O)/C=C/c1ccc(CC(=O)Nc2ccc(Br)cc2)cc1
The GI50 of the first is 1.9-fold lower: 1400 nM for the first, 2700 nM for the second.

Going from `O=C(Nc1ccc(F)cc1F)c1cc(I)ccc1O` to `O=C(Nc1ccc(I)cc1)c1cc([N+](=O)[O-])ccc1O`, the GI50 rises from 2550 nM to 3990 nM (1.6-fold).

`O=C1c2ccccc2C(=O)c2sc(Nc3cccc(Cl)c3)nc21` and `Cc1nc2c(nc1C)C(=O)c1ccccc1C2=O` are within 1.5-fold of each other in GI50: 1770 nM for the first, 1500 nM for the second.

Going from `C=C(CNCCO)[C@@H]1CC[C@]2(CO)CC[C@]3(C)[C@H](CC[C@@H]4[C@@]5(C)CCC(N)C(C)(C)[C@@H]5CC[C@]43C)[C@@H]12` (some centres not stated) to `NC1CCC(Nc2nc(NCc3ccc(-c4ccco4)nc3)c3ncn(C4CCCC4)c3n2)CC1` (configuration not stated), the GI50 falls from 1670 nM to 8.41 nM (200-fold).

First: Cc1cc(=O)n2[nH]c(-c3ccc(C(C)(C)C)cc3)cc2n1
Second: Cc1cc2nc(C(Cl)Cl)nc(-c3ccc(Cl)cc3)n2n1
The GI50 of the first is 11-fold higher: 3380 nM for the first, 299 nM for the second.

First: COc1cc2nc(-c3ccc(C(F)(F)F)cc3)cc(OCCCN3CCC(O)CC3)c2cc1OC
Second: COc1cc2c3c(n(CCCNC4CCCCC4)c(=O)c2cc1OC)-c1cc2c(cc1C3=O)OCO2
The GI50 of the first is 3.5-fold lower: 1630 nM for the first, 5650 nM for the second.

First: COc1ccc2c(c1)C(=O)/C(=C/c1ccc(OCC(=O)Nc3nccs3)cc1)O2
Second: O=C1/C(=C/c2ccc([N+](=O)[O-])cc2)COc2ccc(O)c(O)c21
The GI50 of the first is 100-fold lower: 18.1 nM for the first, 1870 nM for the second.

`CCCCCCCC(=O)SCC/C=C/[C@@H]1CC(=O)NCc2cccc(n2)C2=N[C@@](C)(CS2)C(=O)N[C@@H](C(C)C)C(=O)N1` and `CCOc1ccccc1-n1c(CN2CCN(C(=O)COc3ccc(CNCCCCCCN4C5CCCC4CC(OC(=O)Nc4cc(C)ccc4OC)C5)cc3)CC2)nc2ccccc2c1=O` (configuration not stated) are within 1.5-fold of each other in GI50: 535 nM for the first, 786 nM for the second.

Compared with `Clc1ccc2c(N/N=C/c3c[nH]c4ccccc34)ccnc2c1`, `Fc1ccc(Nc2ncnc3ccc(-c4cnc5[nH]ccc5c4)cc23)cc1Cl` is 8.8-fold lower in GI50: 1010 nM for the first, 115 nM for the second.

First: COC(=O)Nc1nc2ccc(S(=O)c3ccccc3)cc2[nH]1 (configuration not stated)
Second: Cc1cnc(NC(=O)C(Cc2ccccc2)NC(=O)c2ccccc2)s1 (configuration not stated)
The GI50 of the first is 8.1-fold lower: 1940 nM for the first, 15800 nM for the second.

First: Clc1cccc(Cc2cn3cc(-c4ccccc4)nc3s2)c1Cl
Second: O=C(CCl)N1c2ccccc2Oc2ccc3ccccc3c21
The GI50 of the first is 6.5-fold higher: 6280 nM for the first, 973 nM for the second.

`Clc1ccc2oc3c(NCCCN4CCOCC4)c4ccccc4nc3c2c1` and `CNC(=O)c1ccccc1Nc1nc(Nc2ccc(N3CCOCC3)cc2OC)ncc1Cl` are the same in GI50: 1490 nM for the first, 1490 nM for the second.

Compared with `CC(C)c1ccc(C(C)C(=O)N(CC2=C(C(C)c3ccccn3)c3ccccc3C2)C(C)C)cc1` (configuration not stated), `NC(CSC(c1ccccc1)(c1ccccc1)c1ccc2c(c1)OCO2)C(=O)O` (configuration not stated) is 11-fold lower in GI50: 2780 nM for the first, 254 nM for the second.

Compared with `COc1cc(C(=O)/C=C/c2sc(Cl)nc2Cl)cc(OC)c1OC`, `COc1cc2c(c(OC)c1O)C(=O)C(OC)C(c1ccc(O)c(O)c1)O2` (configuration not stated) is 3.9-fold lower in GI50: 1830 nM for the first, 464 nM for the second.

Going from `CSc1ccccc1C#C/C=C\C#Cc1ccccc1N1CCCC1=O` to `COc1c2ccoc2c(/C=C/C=O)c2oc(-c3ccccc3)cc(=O)c12`, the GI50 rises from 1890 nM to 7020 nM (3.7-fold).

First: O=C(CN1CCN(c2cc3c(cc2F)c(=O)c(C(=O)N/N=C/c2ccccc2O)cn3C2CC2)CC1)N/N=C\c1ccccc1O
Second: O=C(NCCNc1nccc(-c2c(-c3cccc(O)c3)nc3sccn23)n1)c1ccccc1O
The GI50 of the first is 4.4-fold lower: 599 nM for the first, 2640 nM for the second.

First: CCOC(=O)Nc1nc2ccc(OCC)cc2s1
Second: CNC(=O)c1cc(Oc2ccc3nc(NC(=O)Nc4ccc(Cl)c(C(F)(F)F)c4)sc3c2)ccn1
The GI50 of the first is 1.5-fold higher: 2080 nM for the first, 1360 nM for the second.

First: C[C@@H](CS(C)(=O)=O)Nc1ncc2cc(Oc3ccc(F)cc3F)c(=O)n(C)c2n1
Second: CN(C)CCCNC1=C(Cl)C(=O)c2ccccc2C1=O
The GI50 of the first is higher: greater than 25000 nM for the first, 1590 nM for the second.

Compared with `O=c1n(CC2CO2)c(=O)n(CC2CO2)n1CC1CO1` (configuration not stated), `CC(=O)[O][Hg][c]1c(N)c(C)cc(C)c1F` is 1.7-fold lower in GI50: 2290 nM for the first, 1340 nM for the second.

`COc1ccc(-c2cc(-c3ccc(Nc4nc(Nc5ccccc5)nc(Nc5ccc(Cl)cc5)n4)cc3)nc(N)c2C#N)cc1` showed a GI50 of 1150 nM.

Compared with `Nc1cc2nc3ccccc3sc-2cc1=O`, `Oc1ccc(Cl)cc1-c1cc(-c2ccccc2Cl)[nH]n1` is 2-fold lower in TGI: 16100 nM for the first, 7930 nM for the second.

`COc1cc(/C=C/c2cc(/C=C/c3ccc(O)c(OC)c3)n(C(=O)Nc3ccc(F)cc3)n2)ccc1O` and `Cn1ccnc1C(=O)/C=C/c1ccc(CC(=O)Nc2ccc(Br)cc2)cc1` are within 1.5-fold of each other in TGI: 5760 nM for the first, 6620 nM for the second.

Going from `O=C(Nc1ccc(F)cc1F)c1cc(I)ccc1O` to `O=C(Nc1ccc(I)cc1)c1cc([N+](=O)[O-])ccc1O`, the TGI rises from 6880 nM to 39400 nM (5.7-fold).

First: O=C1c2ccccc2C(=O)c2sc(Nc3cccc(Cl)c3)nc21
Second: Cc1nc2c(nc1C)C(=O)c1ccccc1C2=O
The TGI of the first is 1.6-fold lower: 3890 nM for the first, 6040 nM for the second.

First: C=C(CNCCO)[C@@H]1CC[C@]2(CO)CC[C@]3(C)[C@H](CC[C@@H]4[C@@]5(C)CCC(N)C(C)(C)[C@@H]5CC[C@]43C)[C@@H]12 (some centres not stated)
Second: NC1CCC(Nc2nc(NCc3ccc(-c4ccco4)nc3)c3ncn(C4CCCC4)c3n2)CC1 (configuration not stated)
The TGI of the first is 100-fold higher: 3530 nM for the first, 34.9 nM for the second.

Compared with `Cc1cc(=O)n2[nH]c(-c3ccc(C(C)(C)C)cc3)cc2n1`, `Cc1cc2nc(C(Cl)Cl)nc(-c3ccc(Cl)cc3)n2n1` is 36-fold lower in TGI: 40600 nM for the first, 1120 nM for the second.

`COc1cc2nc(-c3ccc(C(F)(F)F)cc3)cc(OCCCN3CCC(O)CC3)c2cc1OC` and `COc1cc2c3c(n(CCCNC4CCCCC4)c(=O)c2cc1OC)-c1cc2c(cc1C3=O)OCO2` are within 1.5-fold of each other in TGI: 11300 nM for the first, 15700 nM for the second.

Going from `COc1ccc2c(c1)C(=O)/C(=C/c1ccc(OCC(=O)Nc3nccs3)cc1)O2` to `O=C1/C(=C/c2ccc([N+](=O)[O-])cc2)COc2ccc(O)c(O)c21`, the TGI rises from 39.2 nM to 5550 nM (140-fold).

First: CCCCCCCC(=O)SCC/C=C/[C@@H]1CC(=O)NCc2cccc(n2)C2=N[C@@](C)(CS2)C(=O)N[C@@H](C(C)C)C(=O)N1
Second: CCOc1ccccc1-n1c(CN2CCN(C(=O)COc3ccc(CNCCCCCCN4C5CCCC4CC(OC(=O)Nc4cc(C)ccc4OC)C5)cc3)CC2)nc2ccccc2c1=O (configuration not stated)
The TGI of the first is higher: greater than 33300 nM for the first, 2420 nM for the second.

First: Clc1ccc2c(N/N=C/c3c[nH]c4ccccc34)ccnc2c1
Second: Fc1ccc(Nc2ncnc3ccc(-c4cnc5[nH]ccc5c4)cc23)cc1Cl
The TGI of the first is 4.3-fold higher: 2450 nM for the first, 575 nM for the second.

Compared with `COC(=O)Nc1nc2ccc(S(=O)c3ccccc3)cc2[nH]1` (configuration not stated), `Cc1cnc(NC(=O)C(Cc2ccccc2)NC(=O)c2ccccc2)s1` (configuration not stated) is 4.3-fold higher in TGI: 8290 nM for the first, 35700 nM for the second.

Compared with `Clc1cccc(Cc2cn3cc(-c4ccccc4)nc3s2)c1Cl`, `O=C(CCl)N1c2ccccc2Oc2ccc3ccccc3c21` is lower in TGI: greater than 100000 nM for the first, 2450 nM for the second.

`Clc1ccc2oc3c(NCCCN4CCOCC4)c4ccccc4nc3c2c1` and `CNC(=O)c1ccccc1Nc1nc(Nc2ccc(N3CCOCC3)cc2OC)ncc1Cl` are within 1.5-fold of each other in TGI: 3500 nM for the first, 4320 nM for the second.

Going from `CC(C)c1ccc(C(C)C(=O)N(CC2=C(C(C)c3ccccn3)c3ccccc3C2)C(C)C)cc1` (configuration not stated) to `NC(CSC(c1ccccc1)(c1ccccc1)c1ccc2c(c1)OCO2)C(=O)O` (configuration not stated), the TGI falls from 41700 nM to 672 nM (62-fold).

First: COc1cc(C(=O)/C=C/c2sc(Cl)nc2Cl)cc(OC)c1OC
Second: COc1cc2c(c(OC)c1O)C(=O)C(OC)C(c1ccc(O)c(O)c1)O2 (configuration not stated)
The TGI of the first is 9-fold lower: 3700 nM for the first, 33300 nM for the second.

First: CSc1ccccc1C#C/C=C\C#Cc1ccccc1N1CCCC1=O
Second: COc1c2ccoc2c(/C=C/C=O)c2oc(-c3ccccc3)cc(=O)c12
The TGI of the first is 1.6-fold lower: 13800 nM for the first, 22200 nM for the second.

Compared with `O=C(CN1CCN(c2cc3c(cc2F)c(=O)c(C(=O)N/N=C/c2ccccc2O)cn3C2CC2)CC1)N/N=C\c1ccccc1O`, `O=C(NCCNc1nccc(-c2c(-c3cccc(O)c3)nc3sccn23)n1)c1ccccc1O` is 7.1-fold higher in TGI: 2960 nM for the first, 21000 nM for the second.

Compared with `CCOC(=O)Nc1nc2ccc(OCC)cc2s1`, `CNC(=O)c1cc(Oc2ccc3nc(NC(=O)Nc4ccc(Cl)c(C(F)(F)F)c4)sc3c2)ccn1` is lower in TGI: greater than 100000 nM for the first, 4100 nM for the second.

Compared with `C[C@@H](CS(C)(=O)=O)Nc1ncc2cc(Oc3ccc(F)cc3F)c(=O)n(C)c2n1`, `CN(C)CCCNC1=C(Cl)C(=O)c2ccccc2C1=O` is lower in TGI: greater than 25000 nM for the first, 3330 nM for the second.

Going from `O=c1n(CC2CO2)c(=O)n(CC2CO2)n1CC1CO1` (configuration not stated) to `CC(=O)[O][Hg][c]1c(N)c(C)cc(C)c1F`, the TGI falls from 16800 nM to 2740 nM (6.1-fold).

`COc1ccc(-c2cc(-c3ccc(Nc4nc(Nc5ccccc5)nc(Nc5ccc(Cl)cc5)n4)cc3)nc(N)c2C#N)cc1` was tested, and the TGI was 3050 nM.
